{"source": "paper doi:10.1101/2020.06.11.145995v1", "about": "(biorxiv, 2020)", "assay_in_all_cases": "biochemical", "key": {"RSK1": {"target": "RSK1 (Homo sapiens, UniProt Q15418)", "sequence (Q15418 whole entry)": "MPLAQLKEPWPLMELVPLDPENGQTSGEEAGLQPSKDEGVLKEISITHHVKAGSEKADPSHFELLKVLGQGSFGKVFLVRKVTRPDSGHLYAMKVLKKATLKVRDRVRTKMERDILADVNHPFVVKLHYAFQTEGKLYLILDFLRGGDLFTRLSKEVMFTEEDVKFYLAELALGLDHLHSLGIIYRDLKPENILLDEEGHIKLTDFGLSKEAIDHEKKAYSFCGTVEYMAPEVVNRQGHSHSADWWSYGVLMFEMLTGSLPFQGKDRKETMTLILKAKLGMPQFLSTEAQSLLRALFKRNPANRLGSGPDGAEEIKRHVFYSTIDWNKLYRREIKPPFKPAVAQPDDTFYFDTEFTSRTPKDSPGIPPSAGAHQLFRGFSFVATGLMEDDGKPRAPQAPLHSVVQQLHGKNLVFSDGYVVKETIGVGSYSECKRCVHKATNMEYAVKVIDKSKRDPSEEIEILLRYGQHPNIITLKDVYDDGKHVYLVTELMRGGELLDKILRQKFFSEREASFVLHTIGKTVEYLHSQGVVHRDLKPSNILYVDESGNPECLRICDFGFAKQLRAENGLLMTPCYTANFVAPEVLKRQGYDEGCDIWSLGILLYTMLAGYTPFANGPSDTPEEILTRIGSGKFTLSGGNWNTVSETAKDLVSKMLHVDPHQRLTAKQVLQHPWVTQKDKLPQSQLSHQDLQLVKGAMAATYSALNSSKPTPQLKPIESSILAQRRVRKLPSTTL"}, "RET": {"target": "RET (Homo sapiens, UniProt P07949)", "sequence (P07949 whole entry)": "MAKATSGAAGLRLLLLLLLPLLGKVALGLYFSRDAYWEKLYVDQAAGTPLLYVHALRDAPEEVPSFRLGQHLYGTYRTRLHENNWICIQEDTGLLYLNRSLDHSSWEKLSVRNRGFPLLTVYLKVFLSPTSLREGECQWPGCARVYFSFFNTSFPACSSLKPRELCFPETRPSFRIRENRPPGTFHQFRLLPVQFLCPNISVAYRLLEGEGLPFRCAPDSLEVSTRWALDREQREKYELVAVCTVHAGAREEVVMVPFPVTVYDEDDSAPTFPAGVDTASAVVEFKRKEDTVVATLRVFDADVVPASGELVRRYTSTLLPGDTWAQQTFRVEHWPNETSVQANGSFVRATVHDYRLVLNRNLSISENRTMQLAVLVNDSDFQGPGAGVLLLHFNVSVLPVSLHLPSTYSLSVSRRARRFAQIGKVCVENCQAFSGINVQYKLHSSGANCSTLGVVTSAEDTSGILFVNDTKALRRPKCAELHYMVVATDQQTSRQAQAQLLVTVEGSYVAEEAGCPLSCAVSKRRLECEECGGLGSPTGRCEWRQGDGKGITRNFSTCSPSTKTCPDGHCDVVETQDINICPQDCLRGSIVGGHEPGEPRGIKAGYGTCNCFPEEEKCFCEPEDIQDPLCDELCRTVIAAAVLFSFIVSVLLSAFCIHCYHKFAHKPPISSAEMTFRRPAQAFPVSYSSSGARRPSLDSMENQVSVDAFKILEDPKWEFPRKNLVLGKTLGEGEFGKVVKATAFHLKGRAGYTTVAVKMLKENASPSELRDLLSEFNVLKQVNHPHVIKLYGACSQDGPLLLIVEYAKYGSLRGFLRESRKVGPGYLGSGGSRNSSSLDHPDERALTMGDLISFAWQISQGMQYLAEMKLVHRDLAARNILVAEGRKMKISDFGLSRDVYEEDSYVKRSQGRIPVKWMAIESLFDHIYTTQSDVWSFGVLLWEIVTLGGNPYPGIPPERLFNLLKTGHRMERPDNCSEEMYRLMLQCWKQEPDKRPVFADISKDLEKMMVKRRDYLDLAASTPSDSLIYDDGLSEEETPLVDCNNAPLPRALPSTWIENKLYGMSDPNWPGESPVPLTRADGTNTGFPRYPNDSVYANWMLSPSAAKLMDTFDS"}, "STK16": {"target": "STK16 (Homo sapiens, UniProt O75716)"}, "PIK3CA(M1043I)": {"target": "PIK3CA(M1043I (Homo sapiens, UniProt P42336, M1043I))"}, "TTK": {"target": "TTK (Homo sapiens, UniProt P33981)"}, "PRKCE": {"target": "PRKCE (Homo sapiens, UniProt Q02156)"}, "PCTK1": {"target": "PCTK1 (Homo sapiens, UniProt Q00536)"}, "TBK1": {"target": "TBK1 (Homo sapiens, UniProt Q9UHD2)"}, "PIK3CA(H1047Y)": {"target": "PIK3CA(H1047Y (Homo sapiens, UniProt P42336, H1047Y))"}, "RPS6KA4": {"target": "RPS6KA4 (Homo sapiens, UniProt O75676)", "sequence (O75676 whole entry)": "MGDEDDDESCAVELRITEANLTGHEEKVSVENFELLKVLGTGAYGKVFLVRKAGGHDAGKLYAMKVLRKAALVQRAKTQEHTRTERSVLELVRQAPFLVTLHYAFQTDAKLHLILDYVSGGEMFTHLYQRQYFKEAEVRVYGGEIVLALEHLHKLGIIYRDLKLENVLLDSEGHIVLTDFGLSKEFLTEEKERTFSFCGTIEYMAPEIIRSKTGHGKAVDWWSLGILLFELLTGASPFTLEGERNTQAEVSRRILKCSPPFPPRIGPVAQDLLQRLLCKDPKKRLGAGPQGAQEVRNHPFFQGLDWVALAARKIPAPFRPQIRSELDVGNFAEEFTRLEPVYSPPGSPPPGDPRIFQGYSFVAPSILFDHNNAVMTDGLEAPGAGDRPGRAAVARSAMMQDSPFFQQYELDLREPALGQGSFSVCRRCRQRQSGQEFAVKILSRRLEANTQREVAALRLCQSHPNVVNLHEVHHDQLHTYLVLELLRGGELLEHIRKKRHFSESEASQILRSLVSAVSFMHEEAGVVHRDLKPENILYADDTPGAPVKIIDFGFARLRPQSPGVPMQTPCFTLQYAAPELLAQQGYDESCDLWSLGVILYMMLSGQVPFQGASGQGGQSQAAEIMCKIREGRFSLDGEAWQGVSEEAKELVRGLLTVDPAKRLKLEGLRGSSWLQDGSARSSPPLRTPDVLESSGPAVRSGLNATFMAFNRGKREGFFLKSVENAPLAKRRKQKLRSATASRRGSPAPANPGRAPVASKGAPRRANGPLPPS"}, "PRKCH": {"target": "PRKCH (Homo sapiens, UniProt P24723)"}, "NEK3": {"target": "NEK3 (Homo sapiens, UniProt P51956)"}, "NDR2": {"target": "NDR2 (Homo sapiens, UniProt Q9Y2H1)"}, "TYRO3": {"target": "TYRO3 (Homo sapiens, UniProt Q06418)", "sequence (Q06418 whole entry)": "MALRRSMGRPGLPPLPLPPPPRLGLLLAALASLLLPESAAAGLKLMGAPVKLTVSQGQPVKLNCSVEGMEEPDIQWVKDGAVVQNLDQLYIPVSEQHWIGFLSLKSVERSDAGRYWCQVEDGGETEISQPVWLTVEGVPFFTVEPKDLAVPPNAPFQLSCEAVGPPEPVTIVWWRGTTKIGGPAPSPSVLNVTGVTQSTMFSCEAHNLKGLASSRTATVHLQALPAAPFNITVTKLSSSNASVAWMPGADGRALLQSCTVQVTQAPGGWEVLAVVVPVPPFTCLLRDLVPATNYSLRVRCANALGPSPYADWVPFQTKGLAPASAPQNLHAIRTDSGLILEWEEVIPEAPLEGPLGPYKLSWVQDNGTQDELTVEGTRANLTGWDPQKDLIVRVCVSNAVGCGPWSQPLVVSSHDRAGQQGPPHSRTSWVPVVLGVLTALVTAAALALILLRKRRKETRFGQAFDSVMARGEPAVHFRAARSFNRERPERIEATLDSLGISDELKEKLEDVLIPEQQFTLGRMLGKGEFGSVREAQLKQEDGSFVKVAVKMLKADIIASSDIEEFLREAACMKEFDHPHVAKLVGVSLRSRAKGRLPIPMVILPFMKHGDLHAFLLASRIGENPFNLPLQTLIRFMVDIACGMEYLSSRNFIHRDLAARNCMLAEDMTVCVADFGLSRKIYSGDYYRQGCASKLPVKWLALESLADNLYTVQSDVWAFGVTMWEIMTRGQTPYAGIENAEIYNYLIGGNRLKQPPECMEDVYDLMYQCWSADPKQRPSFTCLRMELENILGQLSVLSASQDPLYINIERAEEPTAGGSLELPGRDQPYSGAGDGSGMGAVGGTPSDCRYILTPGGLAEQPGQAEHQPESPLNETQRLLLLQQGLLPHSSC"}, "TNIK": {"target": "TNIK (Homo sapiens, UniProt Q9UKE5)"}, "SYK": {"target": "SYK (Homo sapiens, UniProt P43405)"}, "QSK": {"target": "QSK (Homo sapiens, UniProt Q9Y2K2)"}, "ROCK1": {"target": "ROCK1 (Homo sapiens, UniProt Q13464)"}, "SIK2": {"target": "SIK2 (Homo sapiens, UniProt Q9H0K1)"}, "TNK1": {"target": "TNK1 (Homo sapiens, UniProt Q13470)"}, "TYK2": {"target": "TYK2 (Homo sapiens, UniProt P29597)", "sequence (P29597 whole entry)": "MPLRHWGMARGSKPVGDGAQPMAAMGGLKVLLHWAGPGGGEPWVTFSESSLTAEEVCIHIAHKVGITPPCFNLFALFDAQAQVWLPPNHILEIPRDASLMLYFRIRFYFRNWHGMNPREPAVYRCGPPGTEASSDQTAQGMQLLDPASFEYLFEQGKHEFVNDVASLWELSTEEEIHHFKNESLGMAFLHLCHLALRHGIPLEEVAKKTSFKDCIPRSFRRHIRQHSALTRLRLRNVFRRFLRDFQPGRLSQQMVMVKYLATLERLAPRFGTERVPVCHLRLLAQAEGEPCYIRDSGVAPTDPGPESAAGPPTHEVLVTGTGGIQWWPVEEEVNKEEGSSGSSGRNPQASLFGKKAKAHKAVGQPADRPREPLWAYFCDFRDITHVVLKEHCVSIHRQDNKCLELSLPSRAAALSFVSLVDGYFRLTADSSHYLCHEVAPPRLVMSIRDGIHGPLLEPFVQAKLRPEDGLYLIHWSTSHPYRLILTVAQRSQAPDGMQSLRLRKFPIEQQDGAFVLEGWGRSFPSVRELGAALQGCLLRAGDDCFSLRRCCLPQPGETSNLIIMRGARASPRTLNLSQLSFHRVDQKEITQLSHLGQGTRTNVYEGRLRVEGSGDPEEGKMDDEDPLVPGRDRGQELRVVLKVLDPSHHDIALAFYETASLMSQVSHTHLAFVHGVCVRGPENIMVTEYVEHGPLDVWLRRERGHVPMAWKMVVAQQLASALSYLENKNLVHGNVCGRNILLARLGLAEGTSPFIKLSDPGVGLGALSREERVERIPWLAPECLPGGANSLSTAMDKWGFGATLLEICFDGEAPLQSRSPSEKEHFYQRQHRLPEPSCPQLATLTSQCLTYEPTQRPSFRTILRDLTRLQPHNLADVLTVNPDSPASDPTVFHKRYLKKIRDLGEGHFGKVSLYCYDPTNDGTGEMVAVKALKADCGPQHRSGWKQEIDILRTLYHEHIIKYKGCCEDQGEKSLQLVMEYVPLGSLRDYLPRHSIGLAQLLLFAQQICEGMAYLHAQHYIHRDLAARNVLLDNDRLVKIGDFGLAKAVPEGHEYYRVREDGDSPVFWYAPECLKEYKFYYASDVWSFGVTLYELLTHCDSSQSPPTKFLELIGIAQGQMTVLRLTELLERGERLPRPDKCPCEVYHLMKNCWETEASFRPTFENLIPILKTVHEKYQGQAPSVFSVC"}, "TLK1": {"target": "TLK1 (Homo sapiens, UniProt Q9UKI8)"}, "p38-alpha": {"target": "p38-alpha (Homo sapiens, UniProt Q16539)", "sequence (Q16539 whole entry)": "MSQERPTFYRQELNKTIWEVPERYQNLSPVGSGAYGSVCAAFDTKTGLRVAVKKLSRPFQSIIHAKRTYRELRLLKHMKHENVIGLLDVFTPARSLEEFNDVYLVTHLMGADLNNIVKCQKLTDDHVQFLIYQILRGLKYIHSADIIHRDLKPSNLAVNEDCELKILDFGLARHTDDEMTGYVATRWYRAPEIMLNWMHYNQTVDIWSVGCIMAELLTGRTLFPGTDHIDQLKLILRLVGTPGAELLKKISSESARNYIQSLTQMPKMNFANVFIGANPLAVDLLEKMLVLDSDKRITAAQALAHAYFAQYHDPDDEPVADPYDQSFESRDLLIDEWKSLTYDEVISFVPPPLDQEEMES"}, "RSK2": {"target": "RSK2 (Homo sapiens, UniProt P51812)"}, "TRKB": {"target": "TRKB (Homo sapiens, UniProt Q16620)"}, "TRPM6": {"target": "TRPM6 (Homo sapiens, UniProt Q9BX84)"}, "STK39": {"target": "STK39 (Homo sapiens, UniProt Q9UEW8)"}, "PIK3C2G": {"target": "PIK3C2G (Homo sapiens, UniProt O75747)"}, "PDPK1": {"target": "PDPK1 (Homo sapiens, UniProt O15530)"}, "[1]": {"conditions": "read-out: CPT-1-70-1 (1μM) % control, Kin.Dom.1-N-terminal"}, "[2]": {"conditions": "read-out: CPT-1-70-1 (1μM) % control, Kin.Dom.2-C-terminal"}, "[3]": {"conditions": "read-out: CPT-1-70-1 (1μM) % control"}, "[4]": {"conditions": "read-out: HYJ-2-002-1 (1μM) % control, Kin.Dom.1-N-terminal"}, "[5]": {"conditions": "read-out: HYJ-2-002-1 (1μM) % control, Kin.Dom.2-C-terminal"}, "[6]": {"conditions": "read-out: HYJ-2-002-1 (1μM) % control"}}, "note": "Read-outs that look alike come from different tables or passages of the source."}
{"smiles": "CN1CCN(c2ccc(Nc3nc(Oc4ccc(NC(=O)CCl)cc4)c4cc[nH]c4n3)cc2)CC1", "note": "[CPT1-70-1]", "values": [{"measurement": "remaining activity at 1 µM", "setting": "RSK1; [1]", "result": 72, "unit": "%"}, {"measurement": "remaining activity at 1 µM", "setting": "RSK1; [2]", "result": 100, "unit": "%"}, {"measurement": "remaining activity at 1 µM", "setting": "RET; [3]", "result": 25, "unit": "%"}, {"measurement": "remaining activity at 1 µM", "setting": "STK16; [3]", "result": 0.75, "unit": "%"}, {"measurement": "remaining activity at 1 µM", "setting": "PIK3CA(M1043I); [3]", "result": 100, "unit": "%"}, {"measurement": "remaining activity at 1 µM", "setting": "TTK; [3]", "result": 4.8, "unit": "%"}, {"measurement": "remaining activity at 1 µM", "setting": "PRKCE; [3]", "result": 63, "unit": "%"}, {"measurement": "remaining activity at 1 µM", "setting": "PCTK1; [3]", "result": 100, "unit": "%"}, {"measurement": "remaining activity at 1 µM", "setting": "TBK1; [3]", "result": 43, "unit": "%"}, {"measurement": "remaining activity at 1 µM", "setting": "PIK3CA(H1047Y); [3]", "result": 100, "unit": "%"}, {"measurement": "remaining activity at 1 µM", "setting": "RPS6KA4; [1]", "result": 100, "unit": "%"}, {"measurement": "remaining activity at 1 µM", "setting": "RPS6KA4; [2]", "result": 79, "unit": "%"}, {"measurement": "remaining activity at 1 µM", "setting": "PRKCH; [3]", "result": 100, "unit": "%"}, {"measurement": "remaining activity at 1 µM", "setting": "NEK3; [3]", "result": 68, "unit": "%"}, {"measurement": "remaining activity at 1 µM", "setting": "NDR2; [3]", "result": 61, "unit": "%"}, {"measurement": "remaining activity at 1 µM", "setting": "TYRO3; [3]", "result": 100, "unit": "%"}, {"measurement": "remaining activity at 1 µM", "setting": "TNIK; [3]", "result": 20, "unit": "%"}, {"measurement": "remaining activity at 1 µM", "setting": "SYK; [3]", "result": 63, "unit": "%"}, {"measurement": "remaining activity at 1 µM", "setting": "QSK; [3]", "result": 100, "unit": "%"}, {"measurement": "remaining activity at 1 µM", "setting": "ROCK1; [3]", "result": 29, "unit": "%"}, {"measurement": "remaining activity at 1 µM", "setting": "SIK2; [3]", "result": 57, "unit": "%"}, {"measurement": "remaining activity at 1 µM", "setting": "TNK1; [3]", "result": 0.95, "unit": "%"}, {"measurement": "remaining activity at 1 µM", "setting": "TYK2; read-out: CPT-1-70-1 (1μM) % control, JH1 domain-catalytic", "result": 7.4, "unit": "%"}, {"measurement": "remaining activity at 1 µM", "setting": "TYK2; read-out: CPT-1-70-1 (1μM) % control, JH2 domain-pseudokinase", "result": 68, "unit": "%"}, {"measurement": "remaining activity at 1 µM", "setting": "TLK1; [3]", "result": 100, "unit": "%"}, {"measurement": "remaining activity at 1 µM", "setting": "p38-alpha; [3]", "result": 100, "unit": "%"}, {"measurement": "remaining activity at 1 µM", "setting": "RSK2; [1]", "result": 100, "unit": "%"}, {"measurement": "remaining activity at 1 µM", "setting": "TRKB; [3]", "result": 28, "unit": "%"}, {"measurement": "remaining activity at 1 µM", "setting": "TRPM6; [3]", "result": 48, "unit": "%"}, {"measurement": "remaining activity at 1 µM", "setting": "STK39; [3]", "result": 85, "unit": "%"}, {"measurement": "remaining activity at 1 µM", "setting": "PIK3C2G; [3]", "result": 100, "unit": "%"}, {"measurement": "remaining activity at 1 µM", "setting": "PDPK1; [3]", "result": 64, "unit": "%"}]}
{"smiles": "CCN1CCN(Cc2ccc(NC(=O)c3ccc(C)c(CCc4cnc5[nH]ccc5c4OC)c3)cc2C(F)(F)F)CC1", "note": "[HYJ-2-002-1]", "values": [{"measurement": "remaining activity at 1 µM", "setting": "RSK1; [4]", "result": 96, "unit": "%"}, {"measurement": "remaining activity at 1 µM", "setting": "RSK1; [5]", "result": 61, "unit": "%"}, {"measurement": "remaining activity at 1 µM", "setting": "RET; [6]", "result": 0.15, "unit": "%"}, {"measurement": "remaining activity at 1 µM", "setting": "STK16; [6]", "result": 80, "unit": "%"}, {"measurement": "remaining activity at 1 µM", "setting": "PIK3CA(M1043I); [6]", "result": 100, "unit": "%"}, {"measurement": "remaining activity at 1 µM", "setting": "TTK; [6]", "result": 64, "unit": "%"}, {"measurement": "remaining activity at 1 µM", "setting": "PRKCE; [6]", "result": 100, "unit": "%"}, {"measurement": "remaining activity at 1 µM", "setting": "PCTK1; [6]", "result": 100, "unit": "%"}, {"measurement": "remaining activity at 1 µM", "setting": "TBK1; [6]", "result": 100, "unit": "%"}, {"measurement": "remaining activity at 1 µM", "setting": "PIK3CA(H1047Y); [6]", "result": 100, "unit": "%"}, {"measurement": "remaining activity at 1 µM", "setting": "RPS6KA4; [4]", "result": 99, "unit": "%"}, {"measurement": "remaining activity at 1 µM", "setting": "RPS6KA4; [5]", "result": 100, "unit": "%"}, {"measurement": "remaining activity at 1 µM", "setting": "PRKCH; [6]", "result": 100, "unit": "%"}, {"measurement": "remaining activity at 1 µM", "setting": "NEK3; [6]", "result": 100, "unit": "%"}, {"measurement": "remaining activity at 1 µM", "setting": "NDR2; [6]", "result": 100, "unit": "%"}, {"measurement": "remaining activity at 1 µM", "setting": "TYRO3; [6]", "result": 40, "unit": "%"}, {"measurement": "remaining activity at 1 µM", "setting": "TNIK; [6]", "result": 11, "unit": "%"}, {"measurement": "remaining activity at 1 µM", "setting": "SYK; [6]", "result": 18, "unit": "%"}, {"measurement": "remaining activity at 1 µM", "setting": "QSK; [6]", "result": 100, "unit": "%"}, {"measurement": "remaining activity at 1 µM", "setting": "ROCK1; [6]", "result": 98, "unit": "%"}, {"measurement": "remaining activity at 1 µM", "setting": "SIK2; [6]", "result": 34, "unit": "%"}, {"measurement": "remaining activity at 1 µM", "setting": "TNK1; [6]", "result": 15, "unit": "%"}, {"measurement": "remaining activity at 1 µM", "setting": "TYK2; read-out: HYJ-2-002-1 (1μM) % control, JH1 domain-catalytic", "result": 53, "unit": "%"}, {"measurement": "remaining activity at 1 µM", "setting": "TYK2; read-out: HYJ-2-002-1 (1μM) % control, JH2 domain-pseudokinase", "result": 100, "unit": "%"}, {"measurement": "remaining activity at 1 µM", "setting": "TLK1; [6]", "result": 74, "unit": "%"}, {"measurement": "remaining activity at 1 µM", "setting": "p38-alpha; [6]", "result": 0.25, "unit": "%"}, {"measurement": "remaining activity at 1 µM", "setting": "RSK2; [4]", "result": 100, "unit": "%"}, {"measurement": "remaining activity at 1 µM", "setting": "TRKB; [6]", "result": 4.2, "unit": "%"}, {"measurement": "remaining activity at 1 µM", "setting": "TRPM6; [6]", "result": 100, "unit": "%"}, {"measurement": "remaining activity at 1 µM", "setting": "STK39; [6]", "result": 94, "unit": "%"}, {"measurement": "remaining activity at 1 µM", "setting": "PIK3C2G; [6]", "result": 100, "unit": "%"}, {"measurement": "remaining activity at 1 µM", "setting": "PDPK1; [6]", "result": 72, "unit": "%"}]}
